Experimental findings from paper PMC12828229, “Aspergillus fumigatus PolX1 is an early ancestor of vertebrate terminal deoxynucleotidyl transferases” (Nucleic Acids Research, 2026) are described below.

SMILES strings stand for the structures.

The target of the assay is T1, AfPolX1 (Aspergillus fumigatus, UniProt Q4X1T5).
T1 construct: gene AFUA_2G08840; catalytic core (8 kDa, fingers, palm, thumb), residues 297-704 in methods, 298-704 in results; codon-optimised in pET28a(+), E. coli Rosetta 2 (DE3); N-terminal His6 tag cut off with TEV protease
T1 sequence (Q4X1T5 297-704): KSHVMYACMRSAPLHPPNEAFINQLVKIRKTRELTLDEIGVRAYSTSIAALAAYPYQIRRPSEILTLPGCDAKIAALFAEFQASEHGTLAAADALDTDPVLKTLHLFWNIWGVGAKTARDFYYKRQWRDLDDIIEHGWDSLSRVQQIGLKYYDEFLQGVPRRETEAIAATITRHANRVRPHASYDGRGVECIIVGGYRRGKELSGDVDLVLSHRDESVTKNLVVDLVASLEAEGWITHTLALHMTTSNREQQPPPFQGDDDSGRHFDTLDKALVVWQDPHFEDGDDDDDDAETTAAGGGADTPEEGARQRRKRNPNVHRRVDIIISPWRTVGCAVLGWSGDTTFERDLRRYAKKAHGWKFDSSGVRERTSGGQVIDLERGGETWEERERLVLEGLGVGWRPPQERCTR
The experiment in a line: single-turnover gap-filling primer extension, denaturing gel. The class given is biochemical. The settings on record: 1-nt gapped 5'-phosphate DNA (D1) templating dT, 150 nM; 4 uM enzyme; 1 mM dATP; 10 mM Mg acetate; pH 7.5; 37 °C.

Take `Nc1ncnc2c1ncn2[C@H]1C[C@H](O)[C@@H](COP(=O)(O)OP(=O)(O)OP(=O)(O)O)O1` [dATP]: the kobs entry is listed as “Correct nucleotide incorporation proceeded at comparable rates for all the substrates”.
